Starred links: 1 amine or outer side, 2 acyl side, 3 side chain; linkers in the order of their positions; H or OH if unused. Positions of bridges follow the written chain, without caps; N, C: chain ends. Non-standard residues stand in square brackets, D forms with d. Residues, ends and D or L forms follow the SMILES beside them. *: point of attachment. Leu(3R-OH,Nα-propionyl) = CCC(=O)N[C@H](C(=O)*)[C@H](O)C(C)C; X1 = CC(C)[C@@H](O[*:3])[C@H](N[*:1])C(=O)[*:2]; NMeT = CN[C@H](C(=O)O)[C@@H](C)O; dPhLac = O=C(O)[C@H](O)Cc1ccccc1; NMeA = CN[C@@H](C)C(=O)O; NMeDha = C=C(NC)C(=O)O

Consider one molecule from patent US20240252668A1, “ANTIBODY DRUG CONJUGATES AND METHODS FOR MAKING THEREOF” (Novartis AG, priority 2021, published 2024).

Data set [1] can be described thus: EPSA determination by supercritical fluid chromatography. It is filed as physicochemical. The note with it: supercritical fluid chromatography, Chirex 3014 column; modified EPSA method, SFC; read-out: EPSA. In short, it runs like this: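 SFC on a Chirex 3014 column ([…], 3×100 mm, 100 Å). Gradient runs linearly from 5% to 60% methanol containing 20 mM ammonium formate, in scCO2, over 4.5 min.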

Data set [2] is described as follows: Plasma incubation of compound (A1), cynomolgus monkey plasma. It is filed as in vitro ADME. The procedure:
Plasma incubations and sample preparation: Compound (A1) was spiked at 5.00 μg/mL in PBS and pooled mixed gender mouse (CD-1), cynomolgus monkey and human plasma. Samples were incubated on a Thermomixer (Eppendorf) at 37° C. while shaking at 650 rpm. Aliquots of 50 μL (n=3) were drawn from each incubation tube following 0, 0.5, 1, 2, 4, 8 and 24 h of incubation. 50 μL of sample was quenched with 200 μL of acetonitrile, containing both generic internal standards, glybenclamide and warfarin, at 62.5 ng/mL. Samples were briefly vortexed and centrifuged for 20 min at 4000 rpm and 4° C. 200 μL of the supernatant was transferred into a clean 800 μL 96-well sample collection plate.
Quantification by LC-MS/MS: LC-MS/MS analysis was conducted with a Shimadzu Nexera UPLC coupled to AB Sciex QTRAP 6500 using the SRM acquisition mode (3 μL injected). Samples were analyzed using a ACE 3° C.18-PFP (3 μM, 2.1×50 mm column) at a column temperature of 65° C. […] Quantification of compound (A1) and 5 was performed by MS-MRM (electrospray in positive mode, ion spray voltage: 5000 V, source temperature: 500° C., curtain gas: 25 psig, nebulizer gas: 60 psig, turbo ion spray gas: 40 psig, mass range: low, resolution Q1/Q3: unit, collision gas: medium, dwell time: 12 msec). […] Peak integration and quantification was conducted with the AB Sciex Analyst software (v.1.7) using the Analyst Classic algorithm.

Another data set has as its system MDCK-LE monolayers. As to the kind of experiment: Cell-based transwell assay with MDCK-low efflux monolayers (passive permeability). Type of data set: in vitro ADME. The note with it: MDCK-LE monolayers. As for the experimental part: (§1) Cell-based transwell assays with MDCK-low efflux monolayers: Compounds (A1) and 2-15 were tested in MDCK cell sub-clones with low effluxt ransporter activity (MDCK-LE) in order to determine their passive permeability. The incubations were performed at a contract research organization as described previously.

Test in data set [3]: as above
It is filed as in vitro ADME. The settings on record: dog; MDCK-LE monolayers. The procedure:
as §1

The test system of data set [4] is Gαq-mutant uveal melanoma xenografts. The settings on record: systemically administered; cited from earlier work.

For `C=C1C(=O)N[C@@H](C)C(=O)N(C)[C@@H](C)C(=O)N[C@@H]([C@H](OC(=O)[C@@H](NC(=O)CC)[C@H](O)C(C)C)C(C)C)C(=O)N(C)[C@@H]([C@@H](C)OC)C(=O)O[C@H](C(C)C)[C@H](NC(C)=O)C(=O)O[C@H](Cc2ccccc2)C(=O)N1C` [Compound (A1), FR900359] (Ac-[X1][dPhLac][NMeDha]A[NMeA][X1](Leu(3R-OH,Nα-propionyl))[NMeT](Me); ester 1-C), in data set [1], the EPSA turned out to be 94 A^2. Besides, the “plasma stability / metabolite formation compared with human plasma” value in data set [2] is listed as “Very similar results”. In addition, in the data set on MDCK-LE monolayers, the “% Fraction absorbed” value is on record as 59.7%. In data set [3], the Papp A→B was 4.06 ×10⁻⁶ cm/s and the recovery was found to be 65%. Also, the “tolerability of the active doses” value in data set [4] was “well tolerated”.
